In patent JPH07118153A, “抗ウレアーゼ剤” (Eisai Co Ltd, priority 1993, dated 1995):

Assays:
[1] = target: T1, H. pylori-produced urease [H.pylori産生ウレアーゼ] (Helicobacter pylori, UniProt P69996); conditions: cited from earlier work; for inhibition of H. pylori-produced urease: Antimicrobial Agents and Chemotherapy, 37(4), 769-774, 1993
Target sequence in this assay (P69996 whole entry): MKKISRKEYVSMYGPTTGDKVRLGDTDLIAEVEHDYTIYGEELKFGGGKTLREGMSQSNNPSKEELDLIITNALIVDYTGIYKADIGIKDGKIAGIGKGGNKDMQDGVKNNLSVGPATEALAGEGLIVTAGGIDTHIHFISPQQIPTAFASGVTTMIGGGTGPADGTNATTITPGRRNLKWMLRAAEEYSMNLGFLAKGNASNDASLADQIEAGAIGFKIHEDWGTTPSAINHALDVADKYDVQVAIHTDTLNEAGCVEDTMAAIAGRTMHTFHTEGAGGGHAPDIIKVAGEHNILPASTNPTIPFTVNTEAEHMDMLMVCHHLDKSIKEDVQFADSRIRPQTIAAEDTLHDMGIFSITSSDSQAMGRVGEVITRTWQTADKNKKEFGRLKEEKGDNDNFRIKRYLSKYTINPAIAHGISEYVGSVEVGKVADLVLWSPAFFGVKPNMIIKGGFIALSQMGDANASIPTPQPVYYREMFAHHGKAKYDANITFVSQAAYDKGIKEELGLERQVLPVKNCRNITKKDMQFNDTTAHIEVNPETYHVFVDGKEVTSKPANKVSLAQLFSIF
Target sequence in this assay (P14916 whole entry, further chain): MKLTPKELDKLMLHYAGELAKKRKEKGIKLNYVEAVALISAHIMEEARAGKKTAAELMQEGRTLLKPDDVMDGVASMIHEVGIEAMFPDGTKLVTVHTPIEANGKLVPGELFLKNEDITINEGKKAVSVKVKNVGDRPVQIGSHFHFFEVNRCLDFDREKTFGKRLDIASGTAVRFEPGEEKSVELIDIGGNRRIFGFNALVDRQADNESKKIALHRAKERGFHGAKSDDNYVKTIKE

[2] = target: T1, H. pylori-produced urease [H.pylori産生ウレアーゼ]; type: biochemical, Helicobacter pylori (ATCC43504)
Target sequence in this assay (P69996 whole entry, looked up): as the sequence (P69996 whole entry) above

[3] = target: jack bean urease [なた豆ウレアーゼ] (Canavalia ensiformis, UniProt P07374); assay: Inhibition of jack bean urease (inhibition test example 1); type: biochemical; conditions: from tables 2 and 4
Sequence of jack bean urease [なた豆ウレアーゼ] (P07374 whole entry, looked up): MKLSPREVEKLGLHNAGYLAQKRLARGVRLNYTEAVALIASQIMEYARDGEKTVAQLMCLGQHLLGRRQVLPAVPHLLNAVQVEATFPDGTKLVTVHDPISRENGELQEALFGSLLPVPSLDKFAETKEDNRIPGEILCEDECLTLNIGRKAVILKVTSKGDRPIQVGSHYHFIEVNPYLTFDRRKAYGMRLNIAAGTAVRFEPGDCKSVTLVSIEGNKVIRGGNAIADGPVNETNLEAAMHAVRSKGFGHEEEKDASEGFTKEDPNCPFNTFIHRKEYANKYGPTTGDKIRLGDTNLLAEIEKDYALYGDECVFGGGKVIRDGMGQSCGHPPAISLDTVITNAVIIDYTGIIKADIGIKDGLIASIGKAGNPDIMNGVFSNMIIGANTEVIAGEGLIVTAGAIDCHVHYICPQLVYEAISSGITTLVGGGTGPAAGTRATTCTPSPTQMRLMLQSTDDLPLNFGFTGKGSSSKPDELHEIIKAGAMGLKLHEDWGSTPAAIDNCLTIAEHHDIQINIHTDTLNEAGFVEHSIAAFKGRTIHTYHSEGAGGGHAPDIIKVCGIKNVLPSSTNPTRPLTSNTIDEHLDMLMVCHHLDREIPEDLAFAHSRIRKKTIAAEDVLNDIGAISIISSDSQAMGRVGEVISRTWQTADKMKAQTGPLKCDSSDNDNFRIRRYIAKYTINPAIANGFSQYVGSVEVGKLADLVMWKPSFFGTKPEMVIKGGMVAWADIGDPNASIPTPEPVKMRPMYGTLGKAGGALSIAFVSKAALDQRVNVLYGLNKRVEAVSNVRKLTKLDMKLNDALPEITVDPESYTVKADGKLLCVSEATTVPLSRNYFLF

[4] = test system: a wide range of ureases [幅広い種類のウレアーゼ]; assay: Urease inhibition across ureases (tables 2 and 4 taken together); type: biochemical; conditions: from tables 2 and 4
[5] = Acute toxicity test, single dose, intravenous and oral; type: in vivo, Slc:SD rats and Slc:ICR mice; conditions: rats and mice

In the case of `COc1ccc2[nH]c([S+]([O-])Cc3ncc(C)c(OC)c3C)nc2c1` (stereo not shown) [オメプラゾール, 5−メトキシ−2−(4−メトキシ−3,5−ジメチルピリジン−2−イル)メチルスルフィニル−1H−ベンズイミダゾール], the “inhibition of H. pylori-produced urease” value [1] is listed as “阻害する”.

For `Cc1c(OCC(F)(F)F)ccnc1C[S+]([O-])c1nc2ccccc2[nH]1` (stereo not shown) [ランソプラゾール, 2−[3−メチル−4−(2,2,2−トリフルオロエトキシ)ピリジン−2−イル]メチルスルフィニル−1H−ベンズイミダゾール], the “inhibition of H. pylori-produced urease” value [1] is given as “阻害する” and the “anti-urease activity relative to acetohydroxamic acid” value ([1]; disclosed in Antimicrobial Agents and Chemotherapy, compared with acetohydroxamic acid) is given as about 2 fold.

For `COCCCOc1ccnc(C[S+]([O-])c2nc3ccccc3[nH]2)c1C` (stereo not shown) [本発明化合物, 2−[4−(3−メトキシプロポキシ)−3−メチルピリジン−2−イル]メチルスルフィニル−1H−ベンズイミダゾール], the “H. pylori-produced urease inhibitory action” value [2] was “阻害作用を有している”, the “activity relative to control substance (times stronger)” value ([2]; H. pylori-produced urease, control substance acetohydroxamic acid) was about 100 fold and the “inhibitory activity on H. pylori-produced urease, compared with reference substances” value ([2]; versus acetohydroxamic acid, caprylohydroxamic acid, nicotinohydroxamic acid, benzohydroxamic acid, omeprazole and lansoprazole, from tables 2, 3 and 4) was “優れた阻害活性を有する”. For the same compound, the “inhibitory action on jack bean urease” value [3] was “阻害作用も有しており”, the “inhibitory action on a wide range of ureases” value [4] was “阻害作用を示した” and the selectivity ratio ([5]; in vivo, intravenous and oral, multiple of the clinical dose by oral administration, read-out: LD50 values relative to the oral clinical dose) was at least 5000. For the same compound, the safety ([5]; judged from LD50 values) was “安全性は極めて高い”.
